Experimental data: patent US11649220B2 (DEMOTECH.INC., priority 2018, dated 2023)

Columns and labels:
[1] = tested on: Malondialdehyde (MDA) in serum; assay: In vivo anti-lipid oxidation experiment (serum MDA, TBA method); parameters: inhibition rate %: concentration or dose not given beside the values; conditions: MAD lipid peroxidation in vivo; for inhibition rate %: relative to solvent DMSO and Chow averages; for avarage value of OD: serum, TBA method, 532 nm
Outline: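 Serum mixed with TBA-based reagents in acetic acid, heated at 95° C for 60 min, centrifuged, supernatant OD read at 532 nm. MDA calculated against 10 nmol/mL tetraethoxypropane standard after subtracting a per-sample control tube (50% glacial acetic acid replacing Reagent III); inhibition % normalised between Chow and DMSO-solvent groups.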

[2] = In vitro free radical inhibition test (DPPH method); conditions: 8 μL of 20 mmol/L compound in 1 mL DPPH 0.059 mg/mL ethanol, 60 min dark, 517 nm; for inhibition rate %: DPPH; for Relative inhibition ability on free radicals: inhibition rate of AGI1067 on DPPH defined as 100
Outline: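 DPPH in absolute ethanol (0.059 mg/mL) was mixed with test compound (20 mmol/L stock) and kept in the dark at room temperature for 60 minutes. Radical scavenging was read as loss of absorbance at 517 nm.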

[3] = tested on: golden hamsters (60% high-fat food, STZ induced); assay: Golden hamster disease model, animal model induction group (16-week-old group): blood biochemical indexes and body weight; format: in vivo; conditions: for change rate of blood glucose %: 0.1 mL of 6.8 mg/mL DMSO solution + 0.25 mL whole milk by gavage once a day for 2 weeks; for change rate of body weight after deduction of DMSO blank %: DMSO blank deducted; for average body weight after administration/g / change of body weight/g / change rate of body weight %: after gavage once a day for 2 weeks; for HDL % / LDL % / total cholesterol % / triglyceride %: change rate, gavage once a day for 2 weeks
[4] = tested on: golden hamsters (high-fat food, STZ induced); assay: Golden hamster disease model, animal model induction group (24-week-old group): blood biochemical indexes and body weight; format: in vivo; conditions: for change rate of blood glucode %: 0.1 mL of 6.8 mg/mL DMSO solution + 0.25 mL whole milk by gavage once a day for 2 weeks; for change rate of body weight after deduction of DMSO blank %: DMSO blank deducted; for change of body weight/g / change rate of body weight %: after gavage once a day for 2 weeks; for HDL % / LDL % / total cholesterol % / triglyceride %: change rate, gavage once a day for 2 weeks; for average body weight at 24 weeks/g: initial weight before administration
Text: Animals and feed: 1) 8-week-old male golden hamsters with a body weight range of 100±5 g were selected; 2) 60% high-fat food; 3) 30% high-fat food; 4) general feed: NRC standard feed, containing 5% fat, total calories 4200 kcal/kg.
Animal model induction group (24-week-old group): After STZ induction, the golden hamsters were continuous fed with 30% high-fat food for 8 weeks, blood was taken from the ocular venous plexus, and the initial body weight, blood glucose concentration, total cholesterol, LDL-c, HDL-c and triglyceride were measured, and the golden hamsters were grouped in parallel according to animal biochemical indicators, 8 in each group; 5) Gavage of compounds: 0.1 mL of solution of compound (concentration: 6.8 mg/mL, DMSO solution) and 0.25 mL of whole milk were mixed evenly and administrated by gavage once a day for 2 weeks; 6) Blank control: 0.1 mL of DMSO and 0.25 mL of whole milk were mixed and administrated by gavage, once a day for 2 weeks; 6) Blank control: 0.1 mL of DMSO were mixed with 0.25 mL of whole milk, and administrated by gavage, once a day for 2 weeks; 7) 14 days later, blood was taken from the ocular venous plexus, and the body weight, blood glucose, total cholesterol, LDL-c, HDL-c and triglyceride were measured.
Instruments: Shimadzu UV-1750 spectrophotometer, clinical determination kit (Changchun Huili Biotechnology Co., Ltd.)
Determination of blood glucose: glucose oxidase method, kit
Determination of total cholesterol (COD-PAP method), kit
Determination of low density lipoprotein cholesterol (direct method), kit
Determination of triglyceride (GP-PAP method)
Determination of high density lipoprotein (direct method), kit

Structure (SMILES)	inhibition rate % [1] [%]	avarage value of OD [1]	inhibition rate % [2] [%]	Relative inhibition ability on free radicals [2]	change rate of blood glucose % [3] [%]	change rate of body weight after deduction of DMSO blank % [3] [%]	average body weight after administration/g [3] [g]	change of body weight/g [3] [g]	change rate of body weight % [3] [%]	HDL % [3] [%]	LDL % [3] [%]	total cholesterol % [3] [%]	triglyceride % [3] [%]	change rate of blood glucode % [4] [%]	change rate of body weight after deduction of DMSO blank % [4] [%]	change of body weight/g [4] [g]	change rate of body weight % [4] [%]	HDL % [4] [%]	LDL % [4] [%]	total cholesterol % [4] [%]	also measured
CC(C)(Sc1cc(C(C)(C)C)c(O)c(C(C)(C)C)c1)Sc1cc(C(C)(C)C)c(O)c(C(C)(C)CCOC(=O)CCCCC2CCSS2)c1 (stereo not drawn) [Compound 12, 3-(3-(tert-butyl)-5-((2-((3,5-di-tert-butyl-4-hydroxyphenyl)thio)propan-2-yl)thio)-2-hydroxyphenyl)-3-methylbutyl 5-(1,2-dithiolan-3-yl)pentanoate]	64.0	6.82	36.5	83.6	−17.0	−1.6	135.4	-2.3	−1.6	−3.4	−35.8	−30.7	−43.0	−29.0	−6.6	-17.3	−14.2	−72.1	−32.7	−0.3	triglyceride % [4]: −51.7%; average body weight at 24 weeks/g [4]: 122.4 g
COC(=O)CNCCC(C)(C)c1cc(SC(C)(C)Sc2cc(C(C)(C)C)c(O)c(C(C)(C)C)c2)cc(C(C)(C)C)c1O [Compound 21]	53.3	7.23	22.3	51.2	−35.5	−1.6	142.5	10.7	8.1	56.3	14.2	−0.6	−6.5	−12.4	−6.1	-16.4	−13.6	−70.1	−21.8	23.5	triglyceride % [4]: −65.1%; average body weight at 24 weeks/g [4]: 120.0 g
CC(C)(Sc1cc(C(C)(C)C)c(O)c(C(C)(C)C)c1)Sc1cc(C(C)(C)C)c(OC(=O)CCC(=O)NCCS(=O)(=O)O)c(C(C)(C)C)c1 [Compound 26, 2-(4-(2,6-di-tert-butyl-4-((2-((3,5-di-tert-butyl-4-hydroxyphenyl)thio)propan-2-yl)thio)phenoxy)-4-oxobutanamido)ethane-1-sulfonic acid]	108.7	5.10	16.3	37.4	−16.8	−2.9	145.2	9.4	6.9	108.8	−6.2	−9.0	3.0	−14.2	−6.4	-18.1	−13.9	−67.5	−23.0	30.5	triglyceride % [4]: −5.1%; average body weight at 24 weeks/g [4]: 130.1 g
